Results: ChEMBL document CHEMBL4152326 (2018)

Columns and labels:
Assay type in all cases: functional
Pseudomonas aeruginosa [1] = assay: Antimicrobial activity against Pseudomonas aeruginosa SR24 in presence of human apo-transferrin by broth microdilution method
Pseudomonas aeruginosa [2] = assay: Antimicrobial activity against AmpC overproducing Pseudomonas aeruginosa SR24-12 in presence of human apo-transferrin by broth microdilution method
Pseudomonas aeruginosa [3] = assay: Antimicrobial activity against IMP-1 producing Pseudomonas aeruginosa SR27001 in presence of human apo-transferrin by broth microdilution method
Pseudomonas aeruginosa [4] = assay: Antimicrobial activity against VIM-2 producing Pseudomonas aeruginosa SBRKM-28 in presence of human apo-transferrin by broth microdilution method
Pseudomonas aeruginosa [5] = assay: Antimicrobial activity against IMP-1 producing Pseudomonas aeruginosa SR27060 in presence of human apo-transferrin by broth microdilution method
Pseudomonas aeruginosa [6] = assay: Antimicrobial activity against Pseudomonas aeruginosa 27060deltaR1 harboring deletion of R1 plasmid in presence of human apo-transferrin by broth microdilution method
[7] = test system: Stenotrophomonas maltophilia; assay: Antimicrobial activity against L-1 producing Stenotrophomonas maltophilia SR21970 in presence of human apo-transferrin by broth microdilution method
Acinetobacter baumannii = assay: Antimicrobial activity against OXA-23/OXA-58 producing Acinetobacter baumannii SR27323 in presence of human apo-transferrin by broth microdilution method
Klebsiella pneumoniae = assay: Antimicrobial activity against KPC-2 producing Klebsiella pneumoniae ATCC BAA-1705 in presence of human apo-transferrin by broth microdilution method
Escherichia coli = assay: Antimicrobial activity against SHV-4 producing Escherichia coli ATCC BAA-200 in presence of human apo-transferrin by broth microdilution method
Pseudomonas aeruginosa [8] = assay: Antibacterial activity against Pseudomonas aeruginosa SR27001 infected in Jcl:ICR mouse systemic infection model assessed as increase in mouse survival rate administered iv 1 to 5 hrs post infection measured over 7 days

Nc1nc(/C(=N/O[C@@H](CC(=O)O)C(=O)O)C(=O)N[C@@H]2C(=O)N3C(C(=O)[O-])=C(C[N+]4(CCNC(=O)c5ccc(O)c(O)c5Cl)CCCC4)CS[C@H]23)cs1
MIC (Pseudomonas aeruginosa [1]): 0.25 mg/L | MIC (Pseudomonas aeruginosa [2]): 0.25 mg/L | MIC (Pseudomonas aeruginosa [3]): 1 mg/L | MIC (Pseudomonas aeruginosa [4]): 0.063 mg/L | MIC (Pseudomonas aeruginosa [5]): 1 mg/L | MIC (Pseudomonas aeruginosa [6]): 0.5 mg/L | MIC [7]: 0.25 mg/L | MIC (Acinetobacter baumannii): 1 mg/L | MIC (Klebsiella pneumoniae): 0.063 mg/L | MIC (Escherichia coli): 1 mg/L

CC(C)(O/N=C(\C(=O)N[C@@H]1C(=O)N2C(C(=O)[O-])=C(C[N+]3(CCNC(=O)c4ccc(O)c(O)c4Cl)CCCC3)CS[C@H]12)c1nc(N)sc1Cl)C(=O)O
MIC (Pseudomonas aeruginosa [1]): 0.25 mg/L | MIC (Pseudomonas aeruginosa [2]): 0.5 mg/L | MIC (Pseudomonas aeruginosa [3]): 1 mg/L | MIC (Pseudomonas aeruginosa [4]): 0.125 mg/L | MIC (Pseudomonas aeruginosa [5]): 1 mg/L | MIC (Pseudomonas aeruginosa [6]): 1 mg/L | MIC [7]: 2 mg/L | MIC (Acinetobacter baumannii): 2 mg/L | MIC (Klebsiella pneumoniae): 0.063 mg/L | MIC (Escherichia coli): 1 mg/L

CC(C)(O/N=C(\C(=O)N[C@@H]1C(=O)N2C(C(=O)[O-])=C(C[N+](C)(C)C3CCN(C(=O)c4ccc(O)c(O)c4Cl)CC3)CS[C@H]12)c1csc(N)n1)C(=O)O
MIC (Pseudomonas aeruginosa [1]): 0.5 mg/L | MIC (Pseudomonas aeruginosa [2]): 1 mg/L | MIC (Pseudomonas aeruginosa [3]): 4 mg/L | MIC (Pseudomonas aeruginosa [4]): 0.5 mg/L | MIC (Pseudomonas aeruginosa [5]): 4 mg/L | MIC (Pseudomonas aeruginosa [6]): 1 mg/L | MIC [7]: 1 mg/L | MIC (Acinetobacter baumannii): 2 mg/L | MIC (Klebsiella pneumoniae): 0.125 mg/L | MIC (Escherichia coli): 2 mg/L

CC(C)(O/N=C(\C(=O)N[C@@H]1C(=O)N2C(C(=O)[O-])=C(C[N+]3(CCC(=O)Nc4ccc(O)c(O)c4Cl)CCCC3)CS[C@H]12)c1csc(N)n1)C(=O)O
MIC (Pseudomonas aeruginosa [1]): 0.25 mg/L | MIC (Pseudomonas aeruginosa [2]): 0.5 mg/L | MIC (Pseudomonas aeruginosa [3]): 2 mg/L | MIC (Pseudomonas aeruginosa [4]): 0.25 mg/L | MIC (Pseudomonas aeruginosa [5]): 2 mg/L | MIC (Pseudomonas aeruginosa [6]): 1 mg/L | MIC [7]: 1 mg/L | MIC (Acinetobacter baumannii): 2 mg/L | MIC (Klebsiella pneumoniae): 0.25 mg/L | MIC (Escherichia coli): 2 mg/L

CC(C)(O/N=C(\C(=O)N[C@@H]1C(=O)N2C(C(=O)[O-])=C(C[N+]3(CCNC(=O)c4cc(O)c(O)c(Cl)c4)CCCC3)CS[C@H]12)c1csc(N)n1)C(=O)O
MIC (Pseudomonas aeruginosa [1]): 0.063 mg/L | MIC (Pseudomonas aeruginosa [2]): 0.125 mg/L | MIC (Pseudomonas aeruginosa [3]): 1 mg/L | MIC (Pseudomonas aeruginosa [5]): 1 mg/L | MIC (Pseudomonas aeruginosa [6]): 0.25 mg/L | MIC [7]: 0.25 mg/L | MIC (Acinetobacter baumannii): 0.25 mg/L | MIC (Klebsiella pneumoniae): ≤ 0.031 mg/L | MIC (Escherichia coli): 0.5 mg/L | ED50 (Pseudomonas aeruginosa [8]): 10.2 mg/kg

C[C@H](O/N=C(\C(=O)N[C@@H]1C(=O)N2C(C(=O)[O-])=C(C[N+]3(CCNC(=O)c4ccc(O)c(O)c4Cl)CCCC3)CS[C@H]12)c1csc(N)n1)C(=O)O
MIC (Pseudomonas aeruginosa [1]): 0.25 mg/L | MIC (Pseudomonas aeruginosa [2]): 0.25 mg/L | MIC (Pseudomonas aeruginosa [3]): 1 mg/L | MIC (Pseudomonas aeruginosa [4]): 0.125 mg/L | MIC (Pseudomonas aeruginosa [5]): 2 mg/L | MIC (Pseudomonas aeruginosa [6]): 1 mg/L | MIC [7]: 0.5 mg/L | MIC (Acinetobacter baumannii): 1 mg/L | MIC (Klebsiella pneumoniae): 0.063 mg/L | MIC (Escherichia coli): 4 mg/L

CC(C)(O/N=C(\C(=O)N[C@@H]1C(=O)N2C(C(=O)[O-])=C(C[n+]3cc(NC(=O)c4ccc(O)c(O)c4Cl)c4n3CCN4)CS[C@H]12)c1csc(N)n1)C(=O)O
MIC (Pseudomonas aeruginosa [1]): 0.25 mg/L | MIC (Pseudomonas aeruginosa [2]): 0.5 mg/L | MIC (Pseudomonas aeruginosa [3]): 16 mg/L | MIC (Pseudomonas aeruginosa [4]): 0.5 mg/L | MIC (Pseudomonas aeruginosa [5]): 16 mg/L | MIC (Pseudomonas aeruginosa [6]): 0.5 mg/L | MIC [7]: > 16 mg/L | MIC (Acinetobacter baumannii): 0.5 mg/L | MIC (Klebsiella pneumoniae): 0.125 mg/L | MIC (Escherichia coli): 1 mg/L

CC(C)(O/N=C(\C(=O)N[C@@H]1C(=O)N2C(C(=O)[O-])=C(C[N@+]34CCC[C@H]3CN(C(=O)c3ccc(O)c(O)c3Cl)CC4)CS[C@H]12)c1csc(N)n1)C(=O)O
MIC (Pseudomonas aeruginosa [1]): 0.25 mg/L | MIC (Pseudomonas aeruginosa [2]): 0.5 mg/L | MIC (Pseudomonas aeruginosa [3]): 0.5 mg/L | MIC (Pseudomonas aeruginosa [4]): 0.25 mg/L | MIC (Pseudomonas aeruginosa [5]): 4 mg/L | MIC (Pseudomonas aeruginosa [6]): 1 mg/L | MIC [7]: 0.5 mg/L | MIC (Acinetobacter baumannii): 2 mg/L | MIC (Klebsiella pneumoniae): 0.063 mg/L | MIC (Escherichia coli): 2 mg/L

CC(C)(O/N=C(\C(=O)N[C@@H]1C(=O)N2C(C(=O)[O-])=C(C[n+]3ccc(NC(=O)c4ccc(O)c(O)c4Cl)cc3)CS[C@H]12)c1csc(N)n1)C(=O)O
MIC (Pseudomonas aeruginosa [1]): 0.063 mg/L | MIC (Pseudomonas aeruginosa [2]): 0.25 mg/L | MIC (Pseudomonas aeruginosa [3]): 2 mg/L | MIC (Pseudomonas aeruginosa [4]): 0.125 mg/L | MIC (Pseudomonas aeruginosa [5]): 2 mg/L | MIC (Pseudomonas aeruginosa [6]): 0.5 mg/L | MIC [7]: 1 mg/L | MIC (Acinetobacter baumannii): 2 mg/L | MIC (Klebsiella pneumoniae): 0.25 mg/L | MIC (Escherichia coli): 2 mg/L

CC(C)(O/N=C(\C(=O)N[C@@H]1C(=O)N2C(C(=O)[O-])=C(C[N+](C)(C)CCNC(=O)c3ccc(O)c(O)c3Cl)CS[C@H]12)c1csc(N)n1)C(=O)O
MIC (Pseudomonas aeruginosa [1]): 0.063 mg/L | MIC (Pseudomonas aeruginosa [2]): 4 mg/L | MIC (Pseudomonas aeruginosa [3]): > 32 mg/L | MIC (Pseudomonas aeruginosa [4]): 0.25 mg/L | MIC (Pseudomonas aeruginosa [5]): 32 mg/L | MIC (Pseudomonas aeruginosa [6]): 2 mg/L | MIC [7]: > 32 mg/L | MIC (Acinetobacter baumannii): 0.5 mg/L | MIC (Klebsiella pneumoniae): 0.5 mg/L | MIC (Escherichia coli): > 32 mg/L

COc1c(O)ccc(C(=O)NCC[N+]2(CC3=C(C(=O)[O-])N4C(=O)[C@@H](NC(=O)/C(=N\OC(C)(C)C(=O)O)c5csc(N)n5)[C@H]4SC3)CCCC2)c1Cl
MIC (Pseudomonas aeruginosa [1]): 2 mg/L | MIC (Pseudomonas aeruginosa [2]): 8 mg/L | MIC (Pseudomonas aeruginosa [3]): 32 mg/L | MIC (Pseudomonas aeruginosa [4]): 16 mg/L | MIC [7]: 28 mg/L | MIC (Acinetobacter baumannii): > 32 mg/L | MIC (Klebsiella pneumoniae): 4 mg/L | MIC (Escherichia coli): 16 mg/L

CC(C)(O/N=C(\C(=O)N[C@@H]1C(=O)N2C(C(=O)[O-])=C(C[N+]3(CCNC(=O)c4[nH]cc(O)c(=O)c4Cl)CCCC3)CS[C@H]12)c1csc(N)n1)C(=O)O
MIC (Pseudomonas aeruginosa [1]): 2 mg/L | MIC (Pseudomonas aeruginosa [2]): 24 mg/L | MIC (Pseudomonas aeruginosa [4]): 4 mg/L | MIC (Pseudomonas aeruginosa [5]): > 32 mg/L | MIC (Pseudomonas aeruginosa [6]): 8 mg/L | MIC [7]: 4 mg/L | MIC (Acinetobacter baumannii): 32 mg/L | MIC (Klebsiella pneumoniae): 2 mg/L | MIC (Escherichia coli): 16 mg/L

CC(C)(O/N=C(\C(=O)N[C@@H]1C(=O)N2C(C(=O)[O-])=C(C[N+]3(CCNC(=O)c4ccc(O)c(O)c4F)CCCC3)CS[C@H]12)c1csc(N)n1)C(=O)O
MIC (Pseudomonas aeruginosa [1]): 0.125 mg/L | MIC (Pseudomonas aeruginosa [2]): 0.125 mg/L | MIC (Pseudomonas aeruginosa [3]): 2 mg/L | MIC (Pseudomonas aeruginosa [5]): 1 mg/L | MIC (Pseudomonas aeruginosa [6]): 1 mg/L | MIC [7]: 0.25 mg/L | MIC (Acinetobacter baumannii): 0.5 mg/L | MIC (Klebsiella pneumoniae): ≤ 0.031 mg/L | MIC (Escherichia coli): 0.5 mg/L | ED50 (Pseudomonas aeruginosa [8]): 5.48 mg/kg

CC(C)(O/N=C(\C(=O)N[C@@H]1C(=O)N2C(C(=O)[O-])=C(C[N+]3(CCNC(=O)c4ccc(O)c(O)c4Cl)CCCCC3)CS[C@H]12)c1csc(N)n1)C(=O)O
MIC (Pseudomonas aeruginosa [1]): 0.25 mg/L | MIC (Pseudomonas aeruginosa [2]): 0.25 mg/L | MIC (Pseudomonas aeruginosa [3]): 1 mg/L | MIC (Pseudomonas aeruginosa [4]): 0.125 mg/L | MIC (Pseudomonas aeruginosa [5]): 2 mg/L | MIC (Pseudomonas aeruginosa [6]): 1 mg/L | MIC [7]: 0.25 mg/L | MIC (Acinetobacter baumannii): 1 mg/L | MIC (Klebsiella pneumoniae): 0.031 mg/L | MIC (Escherichia coli): 0.5 mg/L

C[N+]1(CC2=C(C(=O)[O-])N3C(=O)[C@@H](NC(=O)/C(=N\OC[C@H](NC(=O)c4ccc(O)c(O)c4Cl)C(=O)O)c4csc(N)n4)[C@H]3SC2)CCCC1
MIC (Pseudomonas aeruginosa [1]): 0.125 mg/L | MIC (Pseudomonas aeruginosa [2]): 1 mg/L | MIC (Pseudomonas aeruginosa [3]): 4 mg/L | MIC (Pseudomonas aeruginosa [4]): 0.125 mg/L | MIC (Pseudomonas aeruginosa [5]): 4 mg/L | MIC (Pseudomonas aeruginosa [6]): 2 mg/L | MIC [7]: 8 mg/L

Nc1nc(/C(=N/OCc2cccc(C(=O)O)c2)C(=O)N[C@@H]2C(=O)N3C(C(=O)[O-])=C(C[N+]4(CCNC(=O)c5ccc(O)c(O)c5Cl)CCCC4)CS[C@H]23)cs1
MIC (Pseudomonas aeruginosa [1]): 0.25 mg/L | MIC (Pseudomonas aeruginosa [2]): 0.5 mg/L | MIC (Pseudomonas aeruginosa [3]): 1 mg/L | MIC (Pseudomonas aeruginosa [4]): 0.125 mg/L | MIC (Pseudomonas aeruginosa [5]): 8 mg/L | MIC (Pseudomonas aeruginosa [6]): 2 mg/L | MIC [7]: 2 mg/L | MIC (Acinetobacter baumannii): 0.5 mg/L | MIC (Klebsiella pneumoniae): 2 mg/L | MIC (Escherichia coli): 16 mg/L

Nc1nc(/C(=N/O[C@H](C(=O)O)c2ccccc2)C(=O)N[C@@H]2C(=O)N3C(C(=O)[O-])=C(C[N+]4(CCNC(=O)c5ccc(O)c(O)c5Cl)CCCC4)CS[C@H]23)cs1
MIC (Pseudomonas aeruginosa [1]): 0.25 mg/L | MIC (Pseudomonas aeruginosa [2]): 0.25 mg/L | MIC (Pseudomonas aeruginosa [3]): 0.5 mg/L | MIC (Pseudomonas aeruginosa [4]): 0.125 mg/L | MIC (Pseudomonas aeruginosa [5]): 4 mg/L | MIC (Pseudomonas aeruginosa [6]): 0.5 mg/L | MIC [7]: 0.25 mg/L | MIC (Acinetobacter baumannii): 0.25 mg/L | MIC (Klebsiella pneumoniae): 0.031 mg/L | MIC (Escherichia coli): 0.5 mg/L
